Article PMC6864091, “A LONELY GUY protein of Bordetella pertussis with unique features is related to oxidative stress” (Scientific Reports, 2019)

How the values were obtained:
BP1253 (BpLOG) [1] = biological target: T1, BP1253 (BpLOG) (Bordetella pertussis, UniProt Q7VYQ7); experiment: SPR (Biacore T200, steady state, amine-coupled BP1253-His); cleavage also shown by TLC; assay type: binding
T1 construct: recombinant BP1253 with C-terminal 6x His tag (BP1253-His)

BP1253 (BpLOG) [2] = biological target: T1, BP1253 (BpLOG); experiment: SPR (data not shown); assay type: binding
[3] = biological target: the molecule itself; experiment: SEC; analytical SEC, BEH200 column 4.6 x 300 mm, 10 mM NaH2PO4, 400 mM (NH4)2SO4 pH 6.0; samples of 0.62 mg/ml and 3 mg/ml; mass from a calibration curve of standard proteins

Molecule: Nc1nc2c(ncn2[C@@H]2O[C@H](COP(=O)(O)O)[C@@H](O)[C@H]2O)c(=O)[nH]1 [GMP]
- Kd (BP1253 (BpLOG) [1]): 38.6 µM

Molecule: Nc1ncnc2c1ncn2[C@@H]1O[C@H](COP(=O)(O)O)[C@@H](O)[C@H]1O [AMP]
- Kd (BP1253 (BpLOG) [1]): 5.7 µM

Molecule: Cc1cn([C@H]2C[C@H](O)[C@@H](COP(=O)(O)O)O2)c(=O)[nH]c1=O [TMP]
- Kd (BP1253 (BpLOG) [2]): 2400 µM

Molecule: O=c1ccn([C@@H]2O[C@H](COP(=O)(O)O)[C@@H](O)[C@H]2O)c(=O)[nH]1 [UMP]
- Kd (BP1253 (BpLOG) [2]): 6100 µM

B1: BP1253 (enzyme, Bordetella pertussis, UniProt Q7VYQ7 1-209, looked up)
chain: MSEIKTAAEKLADIGPAVSMFGSARISRESPYYETCAAISAALAGAGFAIIAGGGPGIMEAANKGAFEAGGTSVGLNISLPHEAHNNEYQTISLSFEYFYSRKATFFMHSMAYVAMPGGFGTLDELFEALTLIQTGKVPPAPIVLVGSEFWHGLVDWLGEQLLANGMIAAHDLNLFIIEDDPAKVVRKVVEFHDKQGRTDSQYAPSLPA
notes: also called BpLOG; BP1253-His
- stoichiometry N [3]: 2
